Data reported in patent US11752120B2, “Use of succinic acid in increasing sensitivity of bacteria to antibiotics” (SUN YAT-SEN UNIVERSITY, priority 2018, dated 2023).
Each block holds one compound with its values, some of them ahead of it.

Tests used:
[1] = tested on: E. coli K12; assay: Minimum inhibitory concentration (MIC), NCCLS method, control strain; format: cell-based, Escherichia coli; settings: no unit in table, MIC in μg/mL
Excerpt: (§1) Escherichia coli (E. coli) are one of the most common bacteria in the clinic. 30 strains of E. coli obtained from the clinic were named YT1-30. The minimum inhibitory concentrations (MIC) of 8 antibiotics against these 30 clinically obtained E. coli was detected according to the NCCLS method, and E. coli K12 was used as a control.

[2] = tested on: clinical Escherichia coli YT1-30; assay: Minimum inhibitory concentration (MIC), NCCLS method, 30 clinical strains; format: cell-based; parameters: Minimum inhibitory concentration (MIC): unit not given here
Excerpt: as §1

[3] = tested on: clinical Escherichia coli YT16 and YT28; assay: Viable bacteria count / survival rate after antibiotic with or without succinic acid in M9 medium; format: cell-based
Experimental: A single colony of clinical bacteria was picked from a solid LB plate and was inoculated in 5 mL LB liquid medium for culture at 37° C. and 200 rpm for 16 hours, and then was inoculated in 100 mL LB liquid medium at a ratio of 1:100 (v/v) and was cultured at 37° C. until OD600 value was 1.0. 20 mL of bacterial solution was collected and centrifuged at 8000 rpm for 5 minutes, the supernatant was cleared and bacterial cells were washed with an equal volume of 0.85% normal saline, and finally the bacterial cells were suspended with 1×M9 basic medium (containing 10 mM acetate), the OD value of the bacterial solution was adjusted to 0.5, and then 5 mL of the bacterial solution was aliquoted in a test tube for the following experimental studies.
The survival rates of the clinical bacteria in medium with adding succinic acid and without adding succinic acid at the same antibiotic concentration were compared.
The formula is the number of viable bacteria when different concentrations of succinic acid were added/the number of viable bacteria without adding succinic acid×100%.
In order to study whether clinical Escherichia coli has effect on penicillin antibiotics after adding succinic acid, two clinical Escherichia coli samples of YT16 and YT28 were prepared according to step 2 in Embodiment 1, 20 mM succinic acid and 3 kinds of penicillin were added respectively, […], the number of viable bacteria was counted, and the survival rate was calculated. […]

[4] = tested on: clinical Escherichia coli biofilm; assay: In vitro bactericidal assay of biofilm; format: cell-based; settings: catheter biofilm, 6 hours; succinic acid 580 mg/kg; ampicillin 2000 mg/kg for YT16, 500 mg/kg for YT28
Experimental: […] of clinical Escherichia coli (YT3, YT11, YT12, YT16, YT17, YT21, YT22, YT23, YT28, YT33) were picked, monocloned into LB medium, and cultured overnight, then were transferred into 2 mL fresh LB medium at 1:200, and added with a 6 mm PE-50 biological catheter that was sterilized by UV, and cultured in a 37° C. incubator for culture for 24 hours. The bacterial solution was replaced with 1 mL of LB medium daily, and the catheter was continuously cultured for 3 days. The prepared biofilm was washed 5 times with 1 mL of sterile normal saline, and then placed in a 1.5 mL EP tube.
The assay was divided into 4 groups: normal saline control group, succinic acid group, ampicillin group, ampicillin+succinic acid group, and the catheters were treated in a shaker at 37° C. and 200 rpm. A dosage of succinic acid was 580 mg/kg, and a dosage of ampicillin was 2000 mg/kg for YT16, and 500 mg/kg for YT28. After 6 hours, ultrasonic cleaning was conducted for 15 minutes, the biofilm on the catheter was eluted and thoroughly mixed, and after gradient dilution, spot plate counting was performed. The formula for calculating the bacterial survival rate is: number of viable bacteria in each group/number of viable bacteria in the control group×100%.

Minimum inhibitory concentration (MIC) [1]: 6.1 | Minimum inhibitory concentration (MIC) ([2]; strain YT1): 25000 | Minimum inhibitory concentration (MIC) ([2]; strain YT2): 6250 | Minimum inhibitory concentration (MIC) ([2]; strain YT3): 390.625 | Minimum inhibitory concentration (MIC) ([2]; strain YT4): 6250 | Minimum inhibitory concentration (MIC) ([2]; strain YT5): 25000 | Minimum inhibitory concentration (MIC) ([2]; strain YT6): 1562.5 | Minimum inhibitory concentration (MIC) ([2]; strain YT7): 1562.5 | Minimum inhibitory concentration (MIC) ([2]; strain YT8): 1562.5 | Minimum inhibitory concentration (MIC) ([2]; strain YT9): 1562.5 | Minimum inhibitory concentration (MIC) ([2]; strain YT10): 6250 | Minimum inhibitory concentration (MIC) ([2]; strain YT11): 1562.5 | Minimum inhibitory concentration (MIC) ([2]; strain YT12): 6250 | Minimum inhibitory concentration (MIC) ([2]; strain YT13): 6250 | Minimum inhibitory concentration (MIC) ([2]; strain YT14): 6250 | Minimum inhibitory concentration (MIC) ([2]; strain YT15): 6250 | Minimum inhibitory concentration (MIC) ([2]; strain YT16): 6250 | Minimum inhibitory concentration (MIC) ([2]; strain YT17): 6250 | Minimum inhibitory concentration (MIC) ([2]; strain YT18): 6250 | Minimum inhibitory concentration (MIC) ([2]; strain YT19): 1562.5 | Minimum inhibitory concentration (MIC) ([2]; strain YT20): 1562.5 | Minimum inhibitory concentration (MIC) ([2]; strain YT21): 1562.5 | Minimum inhibitory concentration (MIC) ([2]; strain YT22): 6250 | Minimum inhibitory concentration (MIC) ([2]; strain YT23): 1562.5 | Minimum inhibitory concentration (MIC) ([2]; strain YT24): 6250 | Minimum inhibitory concentration (MIC) ([2]; strain YT25): 6250 | Minimum inhibitory concentration (MIC) ([2]; strain YT26): 6250 | Minimum inhibitory concentration (MIC) ([2]; strain YT27): 6250 | Minimum inhibitory concentration (MIC) ([2]; strain YT28): 1562.5 | Minimum inhibitory concentration (MIC) ([2]; strain YT29): 6250 | Minimum inhibitory concentration (MIC) ([2]; strain YT30): 25000
SMILES: CC1(C)S[C@@H]2[C@H](NC(=O)[C@H](N)c3ccccc3)C(=O)N2[C@H]1C(=O)O [Ampicillin]
survival rate ([3]; YT16, 2.5 mg/mL ampicillin without adding succinic acid, 4 hours): 61.04% | survival rate ([3]; YT16, 5 mg/mL ampicillin without adding succinic acid, 4 hours): 34.53% | survival rate ([3]; YT16, 10 mg/mL ampicillin without adding succinic acid, 4 hours (FIG. 1)): 25.99% | survival rate ([3]; YT16, 10 mg/mL ampicillin without adding succinic acid, 4 hours (FIG. 3)): 73.8% | survival rate ([3]; YT16, 20 mg/mL ampicillin without adding succinic acid, 4 hours): 12.47% | survival rate ([3]; YT16, only 10 mg/mL ampicillin added, 1 hour (FIG. 2)): 93.89% | survival rate ([3]; YT16, only 10 mg/mL ampicillin added, 4 hours (FIG. 2)): 47.34% | survival rate ([3]; YT16, only 10 mg/mL ampicillin added, 7 hours (FIG. 2)): 18.45% | survival rate ([3]; YT28, 2.5 mg/mL ampicillin without adding succinic acid, 4 hours): 68.38% | survival rate ([3]; YT28, 5 mg/mL ampicillin without adding succinic acid, 4 hours): 56.25% | survival rate ([3]; YT28, 10 mg/mL ampicillin without adding succinic acid, 4 hours (FIG. 1)): 35.87% | survival rate ([3]; YT28, 10 mg/mL ampicillin without adding succinic acid, 4 hours (FIG. 3)): 86.21% | survival rate ([3]; YT28, 20 mg/mL ampicillin without adding succinic acid, 4 hours): 27.09% | survival rate ([3]; YT28, only 10 mg/mL ampicillin added, 1 hour (FIG. 2)): 96.79% | survival rate ([3]; YT28, only 10 mg/mL ampicillin added, 4 hours (FIG. 2)): 26.79% | survival rate ([3]; YT28, only 10 mg/mL ampicillin added, 7 hours (FIG. 2)): 14.18% | clearance of clinical Escherichia coli on the biofilms, used alone [4]: cannot clear

Minimum inhibitory concentration (MIC) [1]: 9.765 | Minimum inhibitory concentration (MIC) ([2]; strain YT1): 39.0625 | Minimum inhibitory concentration (MIC) ([2]; strain YT2): 625 | Minimum inhibitory concentration (MIC) ([2]; strain YT3): 625 | Minimum inhibitory concentration (MIC) ([2]; strain YT4): 156.25 | Minimum inhibitory concentration (MIC) ([2]; strain YT5): 625 | Minimum inhibitory concentration (MIC) ([2]; strain YT6): 625 | Minimum inhibitory concentration (MIC) ([2]; strain YT7): 625 | Minimum inhibitory concentration (MIC) ([2]; strain YT8): 625 | Minimum inhibitory concentration (MIC) ([2]; strain YT9): 625 | Minimum inhibitory concentration (MIC) ([2]; strain YT10): 625 | Minimum inhibitory concentration (MIC) ([2]; strain YT11): 625 | Minimum inhibitory concentration (MIC) ([2]; strain YT12): 625 | Minimum inhibitory concentration (MIC) ([2]; strain YT13): 625 | Minimum inhibitory concentration (MIC) ([2]; strain YT14): 2500 | Minimum inhibitory concentration (MIC) ([2]; strain YT15): 2500 | Minimum inhibitory concentration (MIC) ([2]; strain YT16): 625 | Minimum inhibitory concentration (MIC) ([2]; strain YT17): 625 | Minimum inhibitory concentration (MIC) ([2]; strain YT18): 625 | Minimum inhibitory concentration (MIC) ([2]; strain YT19): 625 | Minimum inhibitory concentration (MIC) ([2]; strain YT20): 625 | Minimum inhibitory concentration (MIC) ([2]; strain YT21): 625 | Minimum inhibitory concentration (MIC) ([2]; strain YT22): 625 | Minimum inhibitory concentration (MIC) ([2]; strain YT23): 625 | Minimum inhibitory concentration (MIC) ([2]; strain YT24): 625 | Minimum inhibitory concentration (MIC) ([2]; strain YT25): 625 | Minimum inhibitory concentration (MIC) ([2]; strain YT26): 625 | Minimum inhibitory concentration (MIC) ([2]; strain YT27): 625 | Minimum inhibitory concentration (MIC) ([2]; strain YT28): 2500 | Minimum inhibitory concentration (MIC) ([2]; strain YT29): 625 | Minimum inhibitory concentration (MIC) ([2]; strain YT30): 156.25
SMILES: CC[C@H]1OC(=O)[C@H](C)[C@@H](O[C@H]2C[C@@](C)(OC)[C@@H](O)[C@H](C)O2)[C@H](C)[C@@H](O[C@@H]2O[C@H](C)C[C@H](N(C)C)[C@H]2O)[C@](C)(O)C[C@@H](C)/C(=N\OCOCCOC)[C@H](C)[C@@H](O)[C@]1(C)O [Roxithromycin]

Minimum inhibitory concentration (MIC) [1]: 0.122 | MIC compared with the control E. coli K12 ([2]; strain YT1): the same as the control | Minimum inhibitory concentration (MIC) ([2]; strain YT1): 0.122 | Minimum inhibitory concentration (MIC) ([2]; strain YT2): 0.488 | Minimum inhibitory concentration (MIC) ([2]; strain YT3): 0.488 | Minimum inhibitory concentration (MIC) ([2]; strain YT4): 0.488 | Minimum inhibitory concentration (MIC) ([2]; strain YT5): 7.81 | Minimum inhibitory concentration (MIC) ([2]; strain YT6): 1.953 | Minimum inhibitory concentration (MIC) ([2]; strain YT7): 0.488 | Minimum inhibitory concentration (MIC) ([2]; strain YT8): 0.488 | Minimum inhibitory concentration (MIC) ([2]; strain YT9): 0.488 | Minimum inhibitory concentration (MIC) ([2]; strain YT10): 7.812 | Minimum inhibitory concentration (MIC) ([2]; strain YT11): 7.812 | Minimum inhibitory concentration (MIC) ([2]; strain YT12): 0.488 | Minimum inhibitory concentration (MIC) ([2]; strain YT13): 0.488 | Minimum inhibitory concentration (MIC) ([2]; strain YT14): 0.488 | Minimum inhibitory concentration (MIC) ([2]; strain YT15): 0.488 | Minimum inhibitory concentration (MIC) ([2]; strain YT16): 0.488 | Minimum inhibitory concentration (MIC) ([2]; strain YT17): 0.488 | Minimum inhibitory concentration (MIC) ([2]; strain YT18): 0.488 | Minimum inhibitory concentration (MIC) ([2]; strain YT19): 0.488 | Minimum inhibitory concentration (MIC) ([2]; strain YT20): 0.122 | Minimum inhibitory concentration (MIC) ([2]; strain YT21): 0.488 | Minimum inhibitory concentration (MIC) ([2]; strain YT22): 0.488 | Minimum inhibitory concentration (MIC) ([2]; strain YT23): 0.488 | Minimum inhibitory concentration (MIC) ([2]; strain YT24): 7.812 | Minimum inhibitory concentration (MIC) ([2]; strain YT25): 31.25 | Minimum inhibitory concentration (MIC) ([2]; strain YT26): 31.25 | Minimum inhibitory concentration (MIC) ([2]; strain YT27): 0.488 | Minimum inhibitory concentration (MIC) ([2]; strain YT28): 31.25 | Minimum inhibitory concentration (MIC) ([2]; strain YT29): 7.812 | Minimum inhibitory concentration (MIC) ([2]; strain YT30): 7.812
SMILES: CC(C)(O/N=C(\C(=O)N[C@@H]1C(=O)N2C(C(=O)[O-])=C(C[n+]3ccccc3)CS[C@H]12)c1csc(N)n1)C(=O)O [Ceftazidime]
